Starred links: 1 amine or outer side, 2 acyl side, 3 side chain; linkers in the order of their positions; H or OH if unused. Non-standard residues stand in square brackets, D forms with d. Residues, ends and D or L forms follow the SMILES beside them. *: point of attachment. Pmp = N[C@@H](Cc1ccc(CP(=O)(O)O)cc1)C(=O)O; X1 = O=C(Cn1cc(CCCN[*:1])nn1)[*:2]; Ac6c = NC1(C(=O)O)CCCCC1; NHPentyl = CCCCCN*
Target: Growth factor receptor-bound protein 2 (Homo sapiens, UniProt P62993)
Assay: Binding affinity to Grb2-SH2 domain

Chain of Growth factor receptor-bound protein 2 (P62993 whole entry, the tested form may be a part): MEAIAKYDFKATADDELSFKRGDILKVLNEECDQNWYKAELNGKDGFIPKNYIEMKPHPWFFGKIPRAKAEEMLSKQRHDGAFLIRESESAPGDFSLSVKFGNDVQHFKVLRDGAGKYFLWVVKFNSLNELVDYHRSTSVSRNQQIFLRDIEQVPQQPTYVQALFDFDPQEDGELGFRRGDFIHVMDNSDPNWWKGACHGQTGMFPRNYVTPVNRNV

Structure (SMILES)	Kd [nM]
NC(=O)C[C@@H]1NC(=O)C2(CCCCC2)NC(=O)[C@@H](Cc2ccc(CP(=O)(O)O)cc2)NC(=O)Cn2cc(nn2)CCCNC(=O)[C@H](CC(N)=O)NC(=O)C2(CCCCC2)NC(=O)[C@@H](Cc2ccc(CP(=O)(O)O)cc2)NC(=O)Cn2cc(nn2)CCCNC1=O	> 1000
NC(=O)C[C@@H]1NC(=O)C2(CCCCC2)NC(=O)[C@H](Cc2ccc(CP(=O)(O)O)cc2)NC(=O)Cn2cc(nn2)CCCNC1=O	230
NC(=O)C[C@@H]1NC(=O)C2(CCCCC2)NC(=O)[C@@H](Cc2ccc(CP(=O)(O)O)cc2)NC(=O)Cn2cc(nn2)CCCNC1=O	> 1000
NC(=O)C[C@@H]1NC(=O)C2(CCCCC2)NC(=O)[C@H](Cc2ccc(CP(=O)(O)O)cc2)NC(=O)Cn2cc(nn2)CCCNC(=O)[C@H](CC(N)=O)NC(=O)C2(CCCCC2)NC(=O)[C@H](Cc2ccc(CP(=O)(O)O)cc2)NC(=O)Cn2cc(nn2)CCCNC1=O	1.8
C#CCCCNC(=O)[C@H](CC(N)=O)NC(=O)C1(NC(=O)[C@H](Cc2ccc(CP(=O)(O)O)cc2)NC(=O)CN=[N+]=[N-])CCCCC1	> 1000
CCCCCNC(=O)[C@H](CC(N)=O)NC(=O)C1(NC(=O)[C@H](Cc2ccc(CP(=O)(O)O)cc2)NC(=O)Cn2cc(CCCNC(=O)[C@H](CC(N)=O)NC(=O)C3(NC(=O)[C@H](Cc4ccc(CP(=O)(O)O)cc4)NC(C)=O)CCCCC3)nn2)CCCCC1 (Ac-[Pmp][Ac6c]N[X1][Pmp][Ac6c]N-NHPentyl)	1.1

Source: ChEMBL document CHEMBL1137242, “Application of azide-alkyne cycloaddition 'click chemistry' for the synthesis of Grb2 SH2 domain-binding macrocycles” (Bioorg Med Chem Lett, 2006)
